# Values quoted from earlier work as cited in patent EP0086468A2, “Oral anti-diabetic preparation” (HOECHST UK LIMITED, priority 1982, dated 1983).
# System: plasma glucose
# Details: intravenous bolus injection, published data
compound,measurement,value
COc1ccc(Cl)cc1C(=O)NCCc1ccc(S(=O)(=O)NC(=O)NC2CCCCC2)cc1 [glibenclamide],"nadir in plasma glucose levels, time after injection",about 40 minutes
